The term IC50 denotes the point on the concentration scale where inhibition reaches its midpoint.

Sequence of purified human recombinant CETP (P11597 18-493): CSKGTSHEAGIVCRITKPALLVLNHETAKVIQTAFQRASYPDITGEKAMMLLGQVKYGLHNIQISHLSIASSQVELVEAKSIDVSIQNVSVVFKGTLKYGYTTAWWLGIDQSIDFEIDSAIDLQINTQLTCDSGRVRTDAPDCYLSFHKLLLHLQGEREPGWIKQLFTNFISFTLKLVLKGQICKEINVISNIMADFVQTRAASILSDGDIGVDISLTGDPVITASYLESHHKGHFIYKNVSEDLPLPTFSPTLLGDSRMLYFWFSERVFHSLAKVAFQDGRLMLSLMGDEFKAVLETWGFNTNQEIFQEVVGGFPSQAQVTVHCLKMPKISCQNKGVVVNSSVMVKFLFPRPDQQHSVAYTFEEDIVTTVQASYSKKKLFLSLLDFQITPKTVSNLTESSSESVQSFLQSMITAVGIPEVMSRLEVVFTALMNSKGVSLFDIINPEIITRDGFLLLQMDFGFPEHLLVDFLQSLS

In this assay the target is purified human recombinant CETP (Homo sapiens (Human), UniProt P11597). The experiment in a line: CETP Scintillation Proximity Assay. The assay is classed as biochemical. Conditions: CETP-dependent cholesterol ester transfer from 3H-CE/HDL to biotinylated LDL, 37° C.; read-out: CETP SPA IC50. How it is done:
CETP Scintillation Proximity Assay
Dilutions of compounds in DMSO (1 μl) are added to BD plates (#353232). To this is added 20 μl of a mixture containing ^3H-CE/HDL (0.15 μl), biotinylated LDL (˜5 μg protein/ml final concentration) and unlabeled HDL (16 μg/ml final concentration) in a buffer containing 50 mM HEPES, pH 7.4, 150 mM NaCl and 0.05% sodium azide. Reactions are initiated by the addition of 10 μl of buffer containing purified human recombinant CETP, and incubated at 37° C. At the end of the reaction, 60 μl of LEADseeker beads (#RPNQ0261, 2 mg/ml in buffer containing 1 mg/ml BSA and 0.05 mg protein/ml HDL) are added, the plates are covered and subsequently read. Background activity is determined in a set of wells that receive buffer but no CETP. The level of inhibition is determined by comparing the readings in wells that contain compound to the readings in control wells containing DMSO.
Background: SPA uses beads or plates that emit light when radiolabelled molecules are held near them.
Consider `O[C@H](CNC[C@@](Cc1ccccc1)(c1cc(F)cc(C(F)(F)F)c1)c1ccc(F)cn1)C(F)(F)F` [Example 6, (R)-1,1,1-trifluoro-3-((R)-2-(3-fluoro-5-(trifluoromethyl)phenyl)-2-(5-fluoropyridin-2-yl)-3-phenylpropylamino)propan-2-ol], for which the IC50 was 30 nM.

Consider “isopropyl 3-phenyl-2,2-bis(3- (trifluoromethoxy)phenyl)- propylcarbamate [Example 133]”, for which the IC50 was found to be 1090 nM.

Consider `O[C@H](CNCC(Cc1ccccc1)(c1cccc(OC(F)(F)F)c1)c1cccc(OC(F)(F)F)c1)C(F)(F)F` [Example 47, (R)-1,1,1-trifluoro-3-(3-phenyl-2,2-bis(3-(trifluoromethoxy)phenyl)propylamino)propan-2-ol], for which the IC50 came out at 14 nM.

In the case of `O[C@H](CNCC(Cc1ccccn1)(c1cccc(OC(F)(F)F)c1)c1cccc(OC(F)(F)F)c1)C(F)(F)F` [Example 44, (R)-1,1,1-trifluoro-3-(3-(pyridin-2-yl)-2,2-bis(3-(trifluoromethoxy)phenyl)propylamino)propan-2-ol], the half-maximal inhibitory concentration (IC50) is 19 nM.

Regarding `O=S(=O)(CC(F)(F)F)NCC(Cc1ccccc1)(c1cccc(OC(F)(F)F)c1)c1cccc(OC(F)(F)F)c1` [Example 122, 2,2,2-trifluoro-N-(3-phenyl-2,2-bis(3-(trifluoromethoxy)phenyl)-propyl)ethanesulfonamide], the IC50 stood at 129 nM.

With `O[C@@H](CN(C[C@H](O)C(F)(F)F)CC(Cc1ccccc1)(c1cccc(OC(F)(F)F)c1)c1cccc(OC(F)(F)F)c1)C(F)(F)F` [Example 45, (2S,2′S)-3,3′-(3-phenyl-2,2-bis(3-(trifluoromethoxy)phenyl)propylazanediyl)bis(1,1,1-trifluoropropan-2-ol)], the IC50 was 2810 nM.

For `Cc1cc(CC(CNC[C@H](O)C(F)(F)F)(c2cccc(OC(F)(F)F)c2)c2cccc(OC(F)(F)F)c2)no1` [Example 43, (S)-1,1,1-trifluoro-3-(3-(5-methylisoxazol-3-yl)-2,2-bis(3-(trifluoromethoxy)phenyl)propylamino)propan-2-ol], the IC50 amounted to 134 nM.

Regarding `O=C(NCC(Cc1ccccc1)(c1cccc(OC(F)(F)F)c1)c1cccc(OC(F)(F)F)c1)C1CC1(F)F` (stereo not drawn) [Example 11, 2,2-difluoro-N-(3-phenyl-2,2-bis(3-(trifluoromethoxy)phenyl)propyl)cyclopropanecarboxamide], the IC50 came out at 1430 nM.

For `Oc1c(F)cccc1CNCC(Cc1ccccc1)(c1cccc(OC(F)(F)F)c1)c1cccc(OC(F)(F)F)c1` [Example 94, 2-fluoro-6-((3-phenyl-2,2-bis(3-(trifluoromethoxy)phenyl)propylamino)methyl)phenol], the IC50 is 184 nM.

Regarding `O[C@H](CNC[C@@](Cc1ccccc1)(c1cc(F)cc(OC(F)(F)C(F)F)c1)c1ccc(Cl)cn1)C(F)(F)F` (stereo in doubt) [Example 2, (R)-3-OR)-2-(5-chloropyridin-2-yl)-2-(3-fluoro-5-(1,1,2,2-tetrafluoroethoxy)phenyl)-3-phenylpropylamino)-1,1,1-trifluoropropan-2-ol], the IC50 turned out to be 9 nM.

As for `FC(F)(F)Oc1cccc(C(CNc2ncc(N3CCOCC3)cn2)(Cc2ccccc2)c2cccc(OC(F)(F)F)c2)c1` [Example 112, 5-morpholino-N-(3-phenyl-2,2-bis(3-(trifluoromethoxy)phenyl)propyl)pyrimidin-2-amine], the IC50 stood at 248 nM.

On to `FC(F)(F)CCNCC(Cc1ccccc1)(c1cccc(OC(F)(F)F)c1)c1cccc(OC(F)(F)F)c1` [Example 53, 3,3,3-trifluoro-N-(3-phenyl-2,2-bis(3-(trifluoromethoxy)phenyl)propyl)propan-1-amine], for which the IC50 turned out to be 25 nM.

In the case of `Cc1ccc(CC(CNC[C@@H](O)C(F)(F)F)(c2cccc(OC(F)(F)F)c2)c2cccc(OC(F)(F)F)c2)cc1` [Example 50, (R)-1,1,1-trifluoro-3-(3-p-tolyl-2,2-bis(3-(trifluoromethoxy)phenyl)propylamino)propan-2-ol], the IC50 stood at 9 nM.

With `O=C(NC[C@@](Cc1ccccc1)(c1cc(F)cc(C(F)(F)F)c1)c1ccc(F)cn1)[C@@](O)(c1ccccc1)C(F)(F)F` [Example 5, (S)-3,3,3-trifluoro-N—((R)-2-(3-fluoro-5-(trifluoromethyl)phenyl)-2-(5-fluoropyridin-2-yl)-3-phenylpropyl)-2-hydroxy-2-phenylpropanamide], the 50% inhibitory concentration (IC50) amounted to 4360 nM.

In the case of `O=C(NCC(F)(F)F)NCC(Cc1ccccc1)(c1cccc(OC(F)(F)F)c1)c1cccc(OC(F)(F)F)c1` [Example 27, 1-(3-phenyl-2,2-bis(3-(trifluoromethoxy)phenyl)propyl)-3-(2,2,2-trifluoroethyl)urea], the IC50 is 132 nM.
